Drawing on patent US9149475B2, “Protein kinase C inhibitors and uses thereof” (Rigel Pharmaceuticals, Inc., priority 2009, dated 2015), this text covers IC50 for 28 compounds.

Each structure is given as a SMILES string.

The test deals with Human primary T cells. Nature of the test: IL-2 ELISA, human primary T cell, anti-CD3+CD28+ (whole cell assay). The following applies: Homo sapiens, T-cell, 24 h, human primary T cells stimulated with anti-CD3 + anti-CD28, 24 hours. It is filed as cell-based. Summed up: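 PBMC-derived T cells, pre-expanded on αCD3/αCD28 with IL-2 and then washed free of IL-2, were preincubated with compound for 1 hr at 37° C (100,000 cells/well). They were then stimulated on 1 μg/ml αCD3 plus 5 μg/ml αCD28 for 24 h, and supernatant IL-2 was measured by ELISA. The counter-assay used 0.5 ng/ml PMA plus 0.1 μM ionomycin instead.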
For orientation: ELISA stands for enzyme-linked immunosorbent assay.
Regarding `CC(C)n1nnnc1-c1cccc(Nc2ncc(F)c(NC3CC(C)(C)NC(C)(C)C3)n2)c1` [III-71, 5-fluoro-N2-(3-(1-isopropyl-1H-tetrazol-5-yl)phenyl)-N4-(2,2,6,6-tetramethylpiperidin-4-yl)pyrimidine-2,4-diamine], the IC50 lay within 0.5 to 1 µM.

On to `CN1C(C)(C)CC(Nc2nc(Nc3cccc(-c4nnnn4C4CC4)c3)ncc2F)CC1(C)C` [III-72, N2-(3-(1-cyclopropyl-1H-tetrazol-5-yl)phenyl)-5-fluoro-N4-(1,2,2,6,6-pentamethylpiperidin-4-yl)pyrimidine-2,4-diamine], for which the IC50 was under 0.25 µM.

Consider `CC1(C)CC(Nc2nc(Nc3cccc(-c4nnnn4C4CC4)c3)ncc2F)CC(C)(C)N1` [III-73, N2-(3-(1-cyclopropyl-1H-tetrazol-5-yl)phenyl)-5-fluoro-N4-(2,2,6,6-tetramethylpiperidin-4-yl)pyrimidine-2,4-diamine], for which the IC50 was in the range of 0.5 to 1 µM.

With `CN1C(C)(C)CC(Nc2nc(Nc3cccc(-c4nnnn4CCF)c3)ncc2F)CC1(C)C` [III-74, 5-fluoro-N2-(3-(1-(2-fluoroethyl)-1H-tetrazol-5-yl)phenyl)-N4-(1,2,2,6,6-pentamethylpiperidin-4-yl)pyrimidine-2,4-diamine], the half-inhibitory concentration (IC50) was 0.25 to 0.5 µM.

On to `CC1(C)CC(Nc2nc(Nc3cccc(-c4nnnn4CCF)c3)ncc2F)CC(C)(C)N1` [III-75, 5-fluoro-N2-(3-(1-(2-fluoroethyl)-1H-tetrazol-5-yl)phenyl)-N4-(2,2,6,6-tetramethylpiperidin-4-yl)pyrimidine-2,4-diamine], for which the IC50 was in the range of 0.5 to 1 µM.

In the case of `CN1C(C)(C)CC(Nc2nc(Nc3cccc(-c4nnnn4CCN4CCOCC4)c3)ncc2F)CC1(C)C` [III-76, 5-fluoro-N2-(3-(1-(2-morpholinoethyl)-1H-tetrazol-5-yl)phenyl)-N4-(1,2,2,6,6-pentamethylpiperidin-4-yl)pyrimidine-2,4-diamine], the concentration for half-maximal inhibition (IC50) was in the range of 0.5 to 1 µM.

Turning to `CC1(C)CC(Nc2nc(Nc3cccc(-c4nnnn4CCN4CCOCC4)c3)ncc2F)CC(C)(C)N1` [III-77, 5-fluoro-N2-(3-(1-(2-morpholinoethyl)-1H-tetrazol-5-yl)phenyl)-N4-(2,2,6,6-tetramethylpiperidin-4-yl)pyrimidine-2,4-diamine], the IC50 was over 1 µM.

As for `CN1C(C)(C)CC(Nc2nc(Nc3cc(F)c(OC4CCN(S(C)(=O)=O)CC4)c(F)c3)ncc2F)CC1(C)C` [III-78, N2-(3,5-difluoro-4-(1-(methylsulfonyl)piperidin-4-yloxy)phenyl)-5-fluoro-N4-(1,2,2,6,6-pentamethylpiperidin-4-yl)pyrimidine-2,4-diamine], the IC50 was 0.5 to 1 µM.

Turning to `CN1C(C)(C)CC(Nc2nc(Nc3cc(F)c(OC4CCCN(S(C)(=O)=O)CC4)c(F)c3)ncc2F)CC1(C)C` (stereo not shown) [III-79, N2-(3,5-difluoro-4-(1-(methylsulfonyl)azepan-4-yloxy)phenyl)-5-fluoro-N4-(1,2,2,6,6-pentamethylpiperidin-4-yl)pyrimidine-2,4-diamine], the IC50 is 0.5 to 1 µM.

For `CC1(C)CC(Nc2nc(Nc3cc(F)c(OC4CCCN(S(C)(=O)=O)CC4)c(F)c3)ncc2F)CC(C)(C)N1` (stereo not shown) [III-80, N2-(3,5-difluoro-4-(1-(methylsulfonyl)azepan-4-yloxy)phenyl)-5-fluoro-N4-(2,2,6,6-tetramethylpiperidin-4-yl)pyrimidine-2,4-diamine], the IC50 was over 1 µM.

Take `CC(=O)N1CCCC(Oc2c(F)cc(Nc3ncc(F)c(NC4CC(C)(C)N(C)C(C)(C)C4)n3)cc2F)CC1` (stereo not shown) [III-81, 1-(4-(2,6-difluoro-4-(5-fluoro-4-(1,2,2,6,6-pentamethylpiperidin-4-ylamino)pyrimidin-2-ylamino)phenoxy)azepan-1-yl)ethanone]: the IC50 was 0.5 to 1 µM.

On to `CC(=O)N1CCCC(Oc2c(F)cc(Nc3ncc(F)c(NC4CC(C)(C)NC(C)(C)C4)n3)cc2F)CC1` (stereo not shown) [III-82, 1-(4-(2,6-difluoro-4-(5-fluoro-4-(2,2,6,6-tetramethylpiperidin-4-ylamino)pyrimidin-2-ylamino)phenoxy)azepan-1-yl)ethanone], for which the IC50 was over 1 µM.

With `CCNC(=O)N1CCCC(Oc2c(F)cc(Nc3ncc(F)c(NC4CC(C)(C)N(C)C(C)(C)C4)n3)cc2F)CC1` (stereo not shown) [III-83, 4-(2,6-difluoro-4-(5-fluoro-4-(1,2,2,6,6-pentamethylpiperidin-4-ylamino)pyrimidin-2-ylamino)phenoxy)-N-ethylazepane-1-carboxamide], the half-inhibitory concentration (IC50) was in the range of 0.5 to 1 µM.

Take `CC1(C)CC(Nc2nc(Nc3cc(F)c(OC4CCN(S(C)(=O)=O)CC4)c(F)c3)ncc2F)CC(C)(C)N1` [III-84, N2-(3,5-difluoro-4-(1-(methylsulfonyl)piperidin-4-yloxy)phenyl)-5-fluoro-N4-(2,2,6,6-tetramethylpiperidin-4-yl)pyrimidine-2,4-diamine]: the IC50 was over 1 µM.

Consider `CCNC(=O)N1CCCC(Oc2c(F)cc(Nc3ncc(F)c(NC4CC(C)(C)NC(C)(C)C4)n3)cc2F)CC1` (stereo not shown) [III-85, 4-(2,6-difluoro-4-(5-fluoro-4-(2,2,6,6-tetramethylpiperidin-4-ylamino)pyrimidin-2-ylamino)phenoxy)-N-ethylazepane-1-carboxamide], for which the IC50 is over 1 µM.

As for `CCNC(=O)N1CCC(Oc2ccc(Nc3ncc(F)c(NC4CC(C)(C)NC(C)(C)C4)n3)cc2OC(F)F)CC1` [III-86, 4-(2-(difluoromethoxy)-4-(5-fluoro-4-(2,2,6,6-tetramethylpiperidin-4-ylamino)pyrimidin-2-ylamino)phenoxy)-N-ethylpiperidine-1-carboxamide], the IC50 is over 1 µM.

On to `CCNC(=O)N1CCCC(Oc2ccc(Nc3ncc(F)c(NC4CC(C)(C)N(C)C(C)(C)C4)n3)cc2OC(F)F)CC1` (stereo not shown) [III-87, 4-(2-(difluoromethoxy)-4-(5-fluoro-4-(1,2,2,6,6-pentamethylpiperidin-4-ylamino)pyrimidin-2-ylamino)phenoxy)-N-ethylazepane-1-carboxamide], for which the IC50 fell in the range of 0.25 to 0.5 µM.

Regarding `CCNC(=O)N1CCCC(Oc2ccc(Nc3ncc(F)c(NC4CC(C)(C)NC(C)(C)C4)n3)cc2OC(F)F)CC1` (stereo not shown) [III-88, 4-(2-(difluoromethoxy)-4-(5-fluoro-4-(2,2,6,6-tetramethylpiperidin-4-ylamino)pyrimidin-2-ylamino)phenoxy)-N-ethylazepane-1-carboxamide], the IC50 is over 1 µM.

With `CN1C(C)(C)CC(Nc2nc(Nc3ccc(OC4CCCN(S(C)(=O)=O)CC4)c(OC(F)F)c3)ncc2F)CC1(C)C` (stereo not shown) [III-89, N2-(3-(difluoromethoxy)-4-(1-(methylsulfonyl)azepan-4-yloxy)phenyl)-5-fluoro-N4-(1,2,2,6,6-pentamethylpiperidin-4-yl)pyrimidine-2,4-diamine], the IC50 lay in the range of 0.25 to 0.5 µM.

On to `CC1(C)CC(Nc2nc(Nc3ccc(OC4CCCN(S(C)(=O)=O)CC4)c(OC(F)F)c3)ncc2F)CC(C)(C)N1` (stereo not shown) [III-90, N2-(3-(difluoromethoxy)-4-(1-(methylsulfonyl)azepan-4-yloxy)phenyl)-5-fluoro-N4-(2,2,6,6-tetramethylpiperidin-4-yl)pyrimidine-2,4-diamine], for which the IC50 lay within 0.5 to 1 µM.

Take `CC(=O)N1CCC(Oc2c(F)cc(Nc3ncc(F)c(NC4CC(C)(C)N(C)C(C)(C)C4)n3)cc2F)CC1` [III-91, 1-(4-(2,6-difluoro-4-(5-fluoro-4-(1,2,2,6,6-pentamethylpiperidin-4-ylamino)pyrimidin-2-ylamino)phenoxy)piperidin-1-yl)ethanone]: the IC50 was in the range of 0.5 to 1 µM.

Consider `CC(=O)N1CCC(Oc2c(F)cc(Nc3ncc(F)c(NC4CC(C)(C)NC(C)(C)C4)n3)cc2F)CC1` [III-92, 1-(4-(2,6-difluoro-4-(5-fluoro-4-(2,2,6,6-tetramethylpiperidin-4-ylamino)pyrimidin-2-ylamino)phenoxy)piperidin-1-yl)ethanone], for which the IC50 was over 1 µM.

On to `CC(C)N1CCC(Oc2ccc(Nc3ncc(F)c(NC4CC(C)(C)N(C)C(C)(C)C4)n3)cc2Cl)CC1` [III-95, N2-(3-chloro-4-(1-isopropylpiperidin-4-yloxy)phenyl)-5-fluoro-N4-(1,2,2,6,6-pentamethylpiperidin-4-yl)pyrimidine-2,4-diamine], for which the IC50 is under 0.25 µM.

As to `CC1(C)CC(Nc2nc(Nc3ccc(OC4CCN(CCF)CC4)c(Cl)c3)ncc2F)CC(C)(C)N1` [III-96, N2-(3-chloro-4-(1-(2-fluoroethyl)piperidin-4-yloxy)phenyl)-5-fluoro-N4-(2,2,6,6-tetramethylpiperidin-4-yl)pyrimidine-2,4-diamine], the IC50 is under 0.25 µM.

With `CN1C(C)(C)CC(Nc2nc(Nc3ccc(OC4CCN(CCF)CC4)c(Cl)c3)ncc2F)CC1(C)C` [III-97, N2-(3-chloro-4-(1-(2-fluoroethyl)piperidin-4-yloxy)phenyl)-5-fluoro-N4-(1,2,2,6,6-pentamethylpiperidin-4-yl)pyrimidine-2,4-diamine], the IC50 is under 0.25 µM.

With `CC(C)N1CCC(Oc2ccc(Nc3ncc(F)c(NC4CC(C)(C)NC(C)(C)C4)n3)cc2Cl)CC1` [III-98, N2-(3-chloro-4-(1-isopropylpiperidin-4-yloxy)phenyl)-5-fluoro-N4-(2,2,6,6-tetramethylpiperidin-4-yl)pyrimidine-2,4-diamine], the IC50 is under 0.25 µM.

For the compound `CN1C(C)(C)CC(Nc2nc(Nc3ccc(O[C@H]4CCOC4)c(OC(F)F)c3)ncc2F)CC1(C)C` [III-99, (S)—N2-(3-(difluoromethoxy)-4-(tetrahydrofuran-3-yloxy)phenyl)-5-fluoro-N4-(1,2,2,6,6-pentamethylpiperidin-4-yl)pyrimidine-2,4-diamine], the IC50 was under 0.25 µM.

With `CC1(C)CC(Nc2nc(Nc3ccc(O[C@H]4CCOC4)c(OC(F)F)c3)ncc2F)CC(C)(C)N1` [III-100, (S)—N2-(3-(difluoromethoxy)-4-(tetrahydrofuran-3-yloxy)phenyl)-5-fluoro-N4-(2,2,6,6-tetramethylpiperidin-4-yl)pyrimidine-2,4-diamine], the IC50 fell in the range of 0.25 to 0.5 µM.

As usually defined, the IC50 is the midpoint of a concentration-inhibition curve.
